# Measured values reported in patent publication US10294202B2, “Pyrrolidinones as herbicides” (FMC Corporation, priority 2013, dated 2019).
# Columns and labels:
# ragweed = experiment: Test A pre-/postemergence herbicide test; type: in vivo, Ambrosia elatior
# How it was run: (§1)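 Seeds in loam–sand blend received preemergence directed soil spray; separately, plants 2–10 cm at one- to two-leaf stage received postemergence spray, both with test chemicals in non-phytotoxic solvent with surfactant. After ~10 days in greenhouse, injury rated visually against untreated controls, 0 (no effect) to 100 (complete control).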
# ducksalad = experiment: Test B flooded paddy test; type: in vivo, Heteranthera limosa; conditions: 500 g ai/ha, Flood; scale of 0 to 100 where 0 is no effect and 100 is complete control
# How it was run: (§2)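 2-leaf plants; flood 3 cm over soil; compound into paddy water; depth held. Greenhouse 13–15 d. Visual rating vs controls, 0 (no effect) to 100 (complete control); dash = not tested.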
# blackgrass = experiment: Test A postemergence herbicide test; type: in vivo, Alopecurus myosuroides
# How it was run: (§3)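 Visual injury rating, 0 (no effect) to 100 (complete control), versus untreated controls ~10 days after treatment. Postemergence spray applied at one- to two-leaf stage, plants 2–10 cm tall, potted in loam soil/sand. Greenhouse-held.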
# barnyardgrass [1] = experiment: Test A pre-/postemergence herbicide test; type: in vivo, Echinochloa crus-galli
# How it was run: as §1
# corn = experiment: Test A pre-/postemergence herbicide test; type: in vivo, Zea mays; conditions: Postemergence
# How it was run: as §1
# ryegrass, Italian = experiment: Test A pre-/postemergence herbicide test; type: in vivo, Lolium multiflorum
# How it was run: as §1
# sedge, umbrella = experiment: Test B flooded paddy test; type: in vivo, Cyperus difformis; conditions: 500 g ai/ha, Flood; scale of 0 to 100 where 0 is no effect and 100 is complete control
# How it was run: as §2
# galium = experiment: Test A postemergence herbicide test; type: in vivo, Galium aparine
# How it was run: as §3
# wheat = experiment: Test A pre-/postemergence herbicide test; type: in vivo, Triticum aestivum; conditions: Postemergence
# How it was run: as §1
# rice = experiment: Test B flooded paddy test; type: in vivo, Oryza sativa; conditions: 500 g ai/ha, Flood; scale of 0 to 100 where 0 is no effect and 100 is complete control
# How it was run: as §2
# barnyardgrass [2] = experiment: Test B flooded paddy test; type: in vivo, Echinochloa crus-galli; conditions: 500 g ai/ha, Flood; scale of 0 to 100 where 0 is no effect and 100 is complete control
# How it was run: as §2
# giant foxtail = experiment: Test A pre-/postemergence herbicide test; type: in vivo, Setaria faberii
# How it was run: as §1
# kochia = experiment: Test A pre-/postemergence herbicide test; type: in vivo, Kochia scoparia
# How it was run: as §1
# pigweed = experiment: Test A pre-/postemergence herbicide test; type: in vivo, Amaranthus retroflexus
# How it was run: as §1
# [3] = 125 g ai/ha, visual rating, 0 to 100 scale, 0 no effect, 100 complete control, approximately 10 days, preemergence
# [4] = Postemergence, 125 g ai/ha, 0 to 100 scale, 0 is no effect, 100 is complete control
# [5] = preemergence, 500 g ai/ha, 0 to 100 scale, 0 is no effect and 100 is complete control
# [6] = 125 g ai/ha, 0 to 100 scale, 0 is no effect, 100 is complete control
# [7] = Postemergence, 125 g ai/ha, visual rating on 0 to 100 scale (0 no effect, 100 complete control), approx. 10 days
# [8] = Postemergence, 500 g ai/ha, 0 to 100 scale (0 no effect, 100 complete control)
# [9] = Preemergence, 125 g ai/ha, 0 to 100 scale where 0 is no effect and 100 is complete control
# [10] = Preemergence, 500 g ai/ha, visual rating on 0 to 100 scale (0 no effect, 100 complete control)
# [11] = 125 g ai/ha, visual rating on 0 to 100 scale (0 no effect, 100 complete control), approx. 10 days
# [12] = 500 g ai/ha, 0 to 100 scale (0 no effect, 100 complete control)
structure (smiles),measurement,setting,value
O=C1NCC(c2cccc(C(F)F)c2)C1C(=O)Nc1cccc(F)c1F (racemic) [Compound 164],"Plant response rating, Ragweed",ragweed; [3],20
same,"Plant response rating, Ragweed",ragweed; [4],20
same,"Ragweed plant response rating (0 to 100 scale, 0 is no effect, 100 is complete control)","ragweed; Postemergence, 500 g ai/ha",50
same,"Plant response rating, Ragweed",ragweed; [5],60
same,"Plant response rating, Ducksalad",ducksalad,100
same,"Plant response rating, Blackgrass",blackgrass; [6],50
same,"Blackgrass plant response rating (0 to 100 scale, 0 is no effect, 100 is complete control)",blackgrass; 500 g ai/ha,70
same,"Plant response rating, Barnyardgrass",barnyardgrass [1]; [3],90
same,"Plant response rating, Barnyardgrass",barnyardgrass [1]; [4],90
same,"Barnyardgrass plant response rating (0 to 100 scale, 0 is no effect, 100 is complete control)","barnyardgrass [1]; Postemergence, 500 g ai/ha",90
same,"Plant response rating, Barnyardgrass","barnyardgrass [1]; preemergence, 500 g ai/ha, 0 to 100 scale (0 no effect, 100 complete control)",90
same,"Plant response rating, Corn",corn; [6],50
same,"Corn plant response rating (0 to 100 scale, 0 is no effect, 100 is complete control)",corn; 500 g ai/ha,80
same,"Plant response rating, Ryegrass, Italian","ryegrass, Italian; [3]",20
same,"Plant response rating, Ryegrass, Italian","ryegrass, Italian; [4]",40
same,"Ryegrass, Italian plant response rating (0 to 100 scale, 0 is no effect, 100 is complete control)","ryegrass, Italian; Postemergence, 500 g ai/ha",50
same,"Plant response rating, Ryegrass, Italian","ryegrass, Italian; [5]",50
same,"Plant response rating, Sedge, Umbrella","sedge, umbrella",0
same,"Plant response rating, Galium",galium; [6],50
same,"Galium plant response rating (0 to 100 scale, 0 is no effect, 100 is complete control)",galium; 500 g ai/ha,60
same,"Plant response rating, Wheat",wheat; [6],40
same,"Wheat plant response rating (0 to 100 scale, 0 is no effect, 100 is complete control)",wheat; 500 g ai/ha,80
same,"Plant response rating, Rice",rice,20
same,"Plant response rating, Barnyardgrass",barnyardgrass [2],80
same,"Plant response rating, Foxtail, Giant",giant foxtail; [3],90
same,"Plant response rating, Foxtail, Giant",giant foxtail; [4],70
same,"Foxtail, Giant plant response rating (0 to 100 scale, 0 is no effect, 100 is complete control)","giant foxtail; Postemergence, 500 g ai/ha",90
same,"Plant response rating, Foxtail, Giant","giant foxtail; preemergence, 500 g ai/ha, 0 to 100 scale",90
same,"Plant response rating, Kochia",kochia; [3],60
same,"Plant response rating, Kochia",kochia; [4],60
same,"Kochia plant response rating (0 to 100 scale, 0 is no effect, 100 is complete control)","kochia; Postemergence, 500 g ai/ha",70
same,"Plant response rating, Kochia",kochia; [5],80
same,"Plant response rating, Pigweed",pigweed; [3],50
same,"Plant response rating, Pigweed",pigweed; [4],20
same,"Pigweed plant response rating (0 to 100 scale, 0 is no effect, 100 is complete control)","pigweed; Postemergence, 500 g ai/ha",60
same,"Plant response rating, Pigweed",pigweed; [5],70
O=C1NCC(c2cccc(I)c2)C1C(=O)Nc1cccc(F)c1F (stereo not drawn) [Compound 327],"Plant response rating, Ragweed",ragweed; [7],0
same,"Plant response rating, Ragweed",ragweed; [8],20
same,"Plant response rating, Ragweed",ragweed; [9],20
same,Ragweed plant response rating,ragweed; [10],30
same,"Plant response rating, Ducksalad",ducksalad,60
same,"Plant response rating, Blackgrass",blackgrass; [11],30
same,"Plant response rating, Blackgrass",blackgrass; [12],40
same,"Plant response rating, Barnyardgrass",barnyardgrass [1]; [7],40
same,"Plant response rating, Barnyardgrass",barnyardgrass [1]; [8],80
same,"Plant response rating, Barnyardgrass",barnyardgrass [1]; [9],70
same,Barnyardgrass plant response rating,barnyardgrass [1]; [10],80
same,"Plant response rating, Corn",corn; [11],0
same,"Plant response rating, Corn",corn; [12],30
same,"Plant response rating, Ryegrass, Italian","ryegrass, Italian; [7]",20
same,"Plant response rating, Ryegrass, Italian","ryegrass, Italian; [8]",20
same,"Plant response rating, Ryegrass, Italian","ryegrass, Italian; [9]",40
same,"Ryegrass, Italian plant response rating","ryegrass, Italian; [10]",40
same,"Plant response rating, Sedge, Umbrella","sedge, umbrella",0
same,"Plant response rating, Galium",galium; [11],40
same,"Plant response rating, Galium",galium; [12],60
same,"Plant response rating, Wheat",wheat; [11],0
same,"Plant response rating, Wheat",wheat; [12],20
same,"Plant response rating, Rice",rice,0
same,"Plant response rating, Barnyardgrass",barnyardgrass [2],0
same,"Plant response rating, Foxtail, Giant",giant foxtail; [7],40
same,"Plant response rating, Foxtail, Giant",giant foxtail; [8],80
same,"Plant response rating, Foxtail, Giant",giant foxtail; [9],80
same,"Foxtail, Giant plant response rating",giant foxtail; [10],90
same,"Plant response rating, Kochia",kochia; [7],30
same,"Plant response rating, Kochia",kochia; [8],40
same,"Plant response rating, Kochia",kochia; [9],30
same,Kochia plant response rating,kochia; [10],70
same,"Plant response rating, Pigweed",pigweed; [7],0
same,"Plant response rating, Pigweed",pigweed; [8],20
same,"Plant response rating, Pigweed",pigweed; [9],0
same,Pigweed plant response rating,pigweed; [10],20
